Tests used:
[1] = test system: H1975 xenograft tumor; assay: Potency assay of tumor model, dose-effect relationship, 22 consecutive days; format: in vivo, Balb/C nude mice; settings: for Tumor inhibition T/C value (%) / Weight change (%): po, qd
Procedure: (§1) Balb/C nude mice were purchased from Beijing Vital River Laboratory Animal Technology Co., Ltd., and housed in SPF animal room. The human non-small-cell lung cancer cell line H1975 in a culture dish was collected by trypsin-EDTA (0.25% trypsin, 1 mM EDTA), and then washed with a serum-free PBS solution. Lastly, the cells were implanted after diluted in a serum-free medium. Only the single cell suspension with a survival rate over 90% (Trypan blue rejection) can be used for injection. 5 million cells suspended in a 0.1 ml serum-free culture were injected into the front right flanking subcutaneous region of each mouse by using a 1 ml syringe and a 25G syringe needle, and the blood vessel was carefully avoided. The tumor size was measured in about one week after implantation. A caliper rule was used to measure the tumor size. The tumor volume was calculated by the following formula: tumor volume=(length×width^2)/2.
Further assay was performed to assess the dose-effect relationship of the inhibition of H1975 transplantation tumor growth by the compounds 51 and 91. […] These compounds were dissolved in 30% sulfobutylated beta-cyclodextrin (SBE-β-CD) and 1N HCl (pH 3-4), respectively. […]

[2] = Pharmacokinetics in beagles after oral administration; format: in vivo; settings: male, beagle, dog, 5 mg/kg, plasma
Procedure: Male SD rats weighing 250-300 g, or male beagles weighing 9-10 kg, were fasted overnight before the experiment. The object compounds were dissolved in 30% sulfobutylated beta-cyclodextrin (SBE-β-CD), and orally administrated to the rats at a dose of 20 mg/kg or to the beagles at a dose of 5 mg/kg. Blood samples were taken at 15 minutes, 30 minutes, 1 hour, 2 hours, 3 hours, 4 hours, 6 hours, 8 hours and 24 hours after administration. 0.3 ml of blood was collected at every time point, placed in a centrifuge tube containing K2-EDTA (ethylenediamine tetraacetic acid dipotassium) and centrifuged (2,000 g, 10 minutes, 4° C.) to collect plasma, which was then stored in an ultra cold storage freezer at −80° C. 50 μL of plasma sample was mixed with 5 μL of internal standard (IS), and then extracted with ethyl acetate. After vacuum drying, the residue was re-dissolved in acetonitrile. The sample was filtered and injected into LC-MS/MS for analysis.

[3] = Pharmacokinetic experiments of tumor model (plasma and tumor tissue, H1975 xenograft mice); format: in vivo, Balb/C nude mice; settings: oral 30 mg/kg; for AUC(0-inf) / Cmax / Tmax / half-life / AUC(0-t): Balb/C nude, mouse; for AUC(0-t): read-out: AUC0-24
Procedure: as §1
When the volume of H1975 xenograft tumor reached a volume of about 400 mm^3, the animals were divided into 6 oral administration groups, that is, excipient control group (0 hour) and groups of 30 minutes, 2 hours, 4 hours, 8 hours, and 24 hours after administration (3 animals at each time point). The compound 91 was dissolved in 30% sulfobutylated beta-cyclodextrin (SBE-β-CD) and 1 N HCl (pH 3-4) at a concentration of 3 mg/ml, and gavage administration at a dose of 30 mg/kg was performed. The mice were euthanized by CO2 at the above time points. Then their blood was collected from the heart and placed in a centrifuge tube containing K2-EDTA, and subjected to plasma collection by centrifugation. The tumor tissue was collected, cooled in liquid nitrogen immediately, and then stored under −80° C. until pharmacokinetic analysis.
Pharmacokinetic analysis was performed as below: the plasma sample and tumor tissue homogenate sample were mixed with 5 microliter of internal standard (IS), and then extracted with ethyl acetate. After vacuum drying, the residue was re-dissolved in acetonitrile. The sample was filtered and injected into LC-MS/MS for analysis.

[4] = test system: H1975 xenograft tumor; assay: Potency assay of tumor model, 16 consecutive days; format: in vivo, Balb/C nude mice; settings: oral
Procedure: as §1
This experiment studied the inhibition of tumor growth in H1975 xenograft tumor model by the compounds 20, 50, 91, and 118. When the mean volume of H1975 tumor reached about 260 mm^3, the animals were divided into 5 oral administration groups, that is, excipient control group and groups of oral administration of compound 20, compound 50, compound 91, and compound 118, respectively (n=8/group). These compounds were dissolved in 30% sulfobutylated beta-cyclodextrin (SBE-β-CD) and 1N HCl (pH 3-4). […]

[5] = molecular target: T1, EGFR T790M/L858R (Homo sapiens, UniProt P00533, L858R/T790M); assay: Mutant EGFR T790M/L858R activity inhibition assay (Caliper mobility shift); format: biochemical; settings: read-out: enzyme activity inhibition (IC50) EGFR T790M/L858R
T1 construct: purchased Invitrogen PR8911A
T1 sequence (P00533 25-1210 T790M/L858R): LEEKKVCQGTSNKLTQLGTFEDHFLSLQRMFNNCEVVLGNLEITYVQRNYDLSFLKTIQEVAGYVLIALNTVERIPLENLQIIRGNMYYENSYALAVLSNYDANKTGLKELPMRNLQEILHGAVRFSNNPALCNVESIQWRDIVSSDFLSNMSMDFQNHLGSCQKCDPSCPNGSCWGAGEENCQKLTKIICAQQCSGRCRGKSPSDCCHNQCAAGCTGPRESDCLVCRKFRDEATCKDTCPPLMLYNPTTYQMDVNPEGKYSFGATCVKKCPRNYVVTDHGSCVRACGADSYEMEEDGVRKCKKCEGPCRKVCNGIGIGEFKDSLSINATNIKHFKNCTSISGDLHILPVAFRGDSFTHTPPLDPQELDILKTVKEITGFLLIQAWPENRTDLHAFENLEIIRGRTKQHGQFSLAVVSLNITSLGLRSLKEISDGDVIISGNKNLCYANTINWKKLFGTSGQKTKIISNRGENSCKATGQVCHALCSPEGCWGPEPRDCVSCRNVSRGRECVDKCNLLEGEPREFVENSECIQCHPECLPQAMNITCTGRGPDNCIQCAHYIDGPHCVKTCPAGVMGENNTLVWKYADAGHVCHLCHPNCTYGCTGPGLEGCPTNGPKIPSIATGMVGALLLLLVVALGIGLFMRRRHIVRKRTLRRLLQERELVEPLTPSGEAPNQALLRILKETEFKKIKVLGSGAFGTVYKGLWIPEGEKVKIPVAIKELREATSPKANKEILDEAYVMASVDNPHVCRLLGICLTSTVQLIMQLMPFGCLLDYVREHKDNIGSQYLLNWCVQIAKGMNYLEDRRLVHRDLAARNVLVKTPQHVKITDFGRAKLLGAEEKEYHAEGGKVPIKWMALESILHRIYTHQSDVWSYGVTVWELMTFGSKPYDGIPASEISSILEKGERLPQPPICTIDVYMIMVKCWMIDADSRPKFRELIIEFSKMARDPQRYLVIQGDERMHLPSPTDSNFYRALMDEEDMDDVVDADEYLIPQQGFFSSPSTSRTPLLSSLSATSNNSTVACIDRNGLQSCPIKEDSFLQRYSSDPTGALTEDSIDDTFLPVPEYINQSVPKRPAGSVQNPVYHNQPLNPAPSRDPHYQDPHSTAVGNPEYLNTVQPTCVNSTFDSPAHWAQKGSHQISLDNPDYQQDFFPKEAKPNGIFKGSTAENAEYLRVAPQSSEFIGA
In short: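 Compound added in 10% DMSO at 5-fold final concentration; substrate conversion read by Caliper mobility shift. Inhibition = (max−conversion)/(max−min)×100, with max from DMSO no-compound wells and min from no-enzyme wells; IC50 from fitted concentration–response curve.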

[6] = test system: H1975; assay: Inhibition assay on tumor cell proliferation (CellTiter-Glo), H1975; format: cell-based, Human; settings: Homo sapiens, NCI-H1975; H1975 (L858R and T790M EGFR double mutation), 72 hours, 10% bovine serum

Weight change (%) ([1]; 10 mg/kg, 22 consecutive days): 1.6%
Weight change (%) ([1]; 20 mg/kg, 22 consecutive days): 1.2%
Weight change (%) ([1]; 40 mg/kg, 22 consecutive days): −3.5%
AUC(0-inf) [2]: 814 ng·h/mL
Cmax [2]: 109 ng/mL
Tmax [2]: 1.67 h
half-life [2]: 4.37 h
AUC(0-t) ([2]; read-out: AUC0-24): 786 ng·h/mL
AUC(0-inf) ([3]; plasma): 5130 ng·h/mL
Cmax ([3]; plasma): 1720 ng/mL
Tmax ([3]; plasma): 0.5 h
half-life ([3]; plasma): 3.1 h
AUC(0-t) ([3]; plasma): 5100 ng·h/mL
AUC(0-inf) ([3]; tumor tissue): 6840 ng·h/mL
Cmax ([3]; tumor tissue): 868 ng/mL
Tmax ([3]; tumor tissue): 4 h
half-life ([3]; tumor tissue): 5.5 h
AUC(0-t) ([3]; tumor tissue): 6430 ng·h/mL
absorption after oral administration (in words) [3]: absorbed quickly
IC50 [5]: < 1 nM
IC50 [6]: < 10 nM
SMILES: C=CC(=O)Nc1cc(Nc2nccc(-n3c(=O)n(C(C)C)c4cc(F)ccc43)n2)c(OC)cc1N(C)CCN(C)C [Compound 91, N-(2-((2-(dimethylamino)ethyl)(methyl)amino)-5-(4-(5-fluoro-3-isopropyl-2-oxo-2,3-dihydro-1H-benzo[d]imidazol-1-yl)pyrimidin-2-ylamino)-4-methoxyphenyl)acrylamide]
Tumor inhibition T/C value (%) ([1]; 10 mg/kg, 22 consecutive days): −73%
Tumor inhibition T/C value (%) ([1]; 20 mg/kg, 22 consecutive days): −100%
Tumor inhibition T/C value (%) ([1]; 40 mg/kg, 22 consecutive days): −100%
tumor outcome (in words) ([1]; high dose (40 mg/kg), 22 consecutive days): the tumor disappeared completely
dose dependence of inhibition of H1975 xenograft tumor growth (in words) ([1]; oral, 10, 20 and 40 mg/kg): dose dependently inhibited
T/C value ([4]; 30 mg/kg qd as printed, 16 days after administration): −95%
inhibition of growth of H1975 xenograft tumor (in words) ([4]; 30 mg/kg qd, 16 days): tumor regression

Source: US11267802B2 (BEBETTER MED INC., priority 2015, dated 2022)
